Among the data in article PMC6106167, “Small‐Molecule Neuromedin U Receptor 2 Agonists Suppress Food Intake and Decrease Visceral Fat in Animal Models” (Pharmacology Research & Perspectives, 2018) are EC50 values, retold here.

The target of experiment [1] is T1, neuromedin U receptor 2 (NMUR2) (Homo sapiens, UniProt Q9GZQ4).
T1 construct: human NMUR2 stably expressed in HEK293 cells
The experiment is described as follows: GloSensor cAMP inhibition (Gi mode) in hNMUR2 HEK293 cells; no effect in cells lacking NMUR2; FLIPR calcium EC50 […]. Type of experiment: cell-based. The note with it: read-out: Gi/o EC50.

Experiment [2] addresses T1, neuromedin U receptor 2 (NMUR2). Described as above. The class given is cell-based. The note with it: read-out: Gi/o EC50. The source holds these as a separate data set.

SMILES strings stand for the structures. Read-outs that look alike come from different tables or passages of the source.

T1 sequence (Q9GZQ4 whole entry): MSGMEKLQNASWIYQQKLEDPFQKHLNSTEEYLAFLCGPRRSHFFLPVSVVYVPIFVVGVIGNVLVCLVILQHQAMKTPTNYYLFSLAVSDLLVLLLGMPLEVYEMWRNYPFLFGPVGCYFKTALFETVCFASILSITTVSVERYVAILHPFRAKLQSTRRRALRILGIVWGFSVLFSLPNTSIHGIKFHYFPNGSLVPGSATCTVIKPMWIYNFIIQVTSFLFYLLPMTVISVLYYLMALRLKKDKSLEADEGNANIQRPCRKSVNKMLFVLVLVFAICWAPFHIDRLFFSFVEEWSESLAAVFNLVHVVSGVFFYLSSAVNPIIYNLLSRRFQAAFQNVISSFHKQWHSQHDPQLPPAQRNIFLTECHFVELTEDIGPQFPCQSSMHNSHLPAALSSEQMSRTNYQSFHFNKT

In the case of `N=C(N)NCCOC(c1ccccc1)(c1ccccc1)c1ccccc1` [NY0116], the EC50 in experiment [1] was determined as 1.69 nM.
As for `N=C(N)NCCCOC(c1ccccc1)(c1ccccc1)c1ccccc1` [NY0128], the EC50 in experiment [2] was found to be 0.71 nM.
